Laboratory results taken from US20100323012A1, “Pharmaceutical Compositions Comprising NEP-Inhibitors, Inhibitors of the Endogenous Endothelin Producing System and Diuretics” (Solvay Pharmaceuticals GmbH, priority 2005, published 2010).

Test system: spontaneously hypertensive rat
Test: Telemetric monitoring of blood pressure and heart rate in spontaneously hypertensive rats, compounds given via drinking water
Assay type: in vivo
Details: male SHR; for effect on blood pressure (in words): 3 weeks of treatment via drinking water; for DBP (diastolic blood pressure), effect in relation to baseline, group mean of 24 hour means / HR (heart rate), effect in relation to baseline, group mean of 24 hour means / SBP (systolic blood pressure), effect in relation to baseline, group mean of 24 hour means: day 23 (after 3 weeks of treatment) minus baseline (day 3), via drinking water, intended 10 mg/kg/day hydrochlorothiazide, 100 mg/kg/day daglutril, n = 5 per group
From the text: Male spontaneously hypertensive rats (=SHR, insulin resistant strain from Charles River; aged 6 months) were equipped with telemetry transmitters for continuous monitoring of blood pressure and heart rate (TA11PA-C40, DSI, USA). Telemetry transmitters for continuous monitoring of blood pressure, heart rate and locomotor activity (TA11PA-C40, Data Sciences, USA) were implanted intraabdominally under inhalative halothane anesthesia. A midline abdominal incision was made, and the abdominal aorta was visualized by removal of retroperitoneal fat and connective tissue. A ligature was placed caudal of the renal arteries, the aorta was punctured with a 22G needle, and the catheter was advanced into the aorta. The entry point was sealed with tissue adhesive (Vetbond, 3M, USA), the ligature was removed, and the abdominal incision was closed. Measurements of aortic pressure were taken every 5 minutes (=min) for 4 seconds (=s) each at a sampling rate of 500 Hz, and were corrected for the corresponding ambient pressure (ambient pressure monitor, C11PR, Data Sciences, USA).
After 3 days of monitoring under baseline (untreated) conditions, animals received daglutril via their drinking water. The intended daily dose was 100 mg/kg/day of daglutril. The concentration in drinking water was adjusted once per week, resulting in an average drug intake of 98 mg/kg/day.
In a second experiment, rats were divided into two treatment groups receiving hydrochlorothiazide or hydrochlorothiazide+daglutril. Compounds were administered via the drinking water, and daily drug intake was measured by weighing the water bottles thrice weekly. Intended daily doses were 10 mg/kg/day of hydrochlorothiazide plus, in the combination group, 100 mg/kg/day of daglutril.
Concentrations of hydrochlorothiazide and daglutril in the drinking water were adjusted once per week, in order to ensure the intended daily intake of 10 and 100 mg/kg, respectively. The average daily water intake amounted to 57 and 46 ml/kg in the hydrochlorothiazide and hydrochlorothiazide+daglutril group, respectively, resulting in the uptake of 9.5 mg/kg/day of hydrochlorothiazide in the hydrochlorothiazide group, and 9.4 mg/kg/day of hydrochlorothiazide and 94.4 mg/kg/day of daglutril in the combination group.
The blood pressure, heart rate and activity values, sampled in 5 min intervals by the Dataquest™ system, were used for calculation of individual 24 hour means. These 24 hour means were exported to Excel, and group mean values of systolic blood pressure (=SBP), diastolic blood pressure (=DBP), heart rate (=HR), and locomotor activity (=ACT) were calculated for the daglutril, hydrochlorothiazide and the hydrochlorothiazide+daglutril groups. For the statistical analysis, a baseline value (pre) was calculated from the last day prior to compound application (day 3), and effects of daglutril, hydrochlorothiazide and hydrochlorothiazide+daglutril were calculated in relation to this baseline value (day 23, i.e. after 3 weeks of treatment, minus baseline value). The statistical comparison was done by using univariate ANOVA at an error level of P<0.05.

| Compound | effect on blood pressure (in words) | DBP (diastolic blood pressure), effect in relation to baseline, group mean of 24 hour means | HR (heart rate), effect in relation to baseline, group mean of 24 hour means | SBP (systolic blood pressure), effect in relation to baseline, group mean of 24 hour means |
| --- | --- | --- | --- | --- |
| NS(=O)(=O)c1cc2c(cc1Cl)NCNS2(=O)=O [HCTZ, hydrochlorothiazide] | moderate decrease | −7.7 mmHg | -4.5 min⁻¹ | −11.3 mmHg |
| CCOC(=O)C(CCc1ccccc1)CC1(C(=O)NC2CCc3ccccc3N(CC(=O)O)C2=O)CCCC1 (centres unmarked) [daglutril, 2-[1-(1-carboxymethyl-2-oxo-2,3,4,5-tetrahydro-1H-benzo[b]azepin-3-ylcarbamoyI)-cyclopentylmethyl]-4-phenyl-butyric acid ethyl ester] | no effect | 2.0 mmHg | -6.0 min⁻¹ | −0.3 mmHg |
